The text below walks through data of patent US20200002323A1, “COMPOUNDS” (GLAXOSMITHKLINE INTELLECTUAL PROPERTY DEVELOPMENT LIMITED, priority 2017, published 2020).

The test has as its target T1, recombinant full length LRRK2 protein over-expressed in SH-SY5Y cells (Homo sapiens, UniProt Q5S007).
T1 construct: engineered to over-express recombinant full length LRRK2 protein; host or cells: SH-SY5Y human neuroblastoma cells transduced with BacMam LRRK2 virus
As to the kind of experiment: Recombinant cellular LRRK2 AlphaScreen assay (LRRK2 Ser935 phosphorylation). The test is classed as cell-based. The note with it: human neuroblastoma SH-SY5Y cells over-expressing recombinant full length LRRK2, 60 minutes compound incubation, read-out: pIC50 in the recombinant cellular LRRK2 AlphaScreen assay (converted). The text has this: b. Recombinant Cellular LRRK2 AlphaScreen Assay
To determine the activity of compounds against LRRK2 kinase activity in cells, the observed LRRK2 kinase-dependent modulation of LRRK2 Ser 935 phosphorylation (Dzamko et al., 2010, Biochem. J. 430: 405-413) was utilized to develop a quantitative 384 well plate-based immunoassay of LRRK2 Ser935 phosphorylation in the human neuroblastoma cell line SH-SY5Y, engineered to over-express recombinant full length LRRK2 protein.
A BacMam virus expressing full length recombinant LRRK2 was purchased from Invitrogen and amplified by inoculation of SF-9 cells at MOI 0.3 for 4-5 days in Sf-900 III SFM medium supplemented with 3% fetal bovine serum. Infected cell cultures were then centrifuged at 2000 g for 20 minutes, viral supernatant titer determined by anti-gp64 plaque assay and stored at 4° C.
Affinity-purified anti-phospho LRRK2 Ser935 sheep polyclonal antibody (Dzamko et al., 2010, Biochem. J. 430: 405-413) was biotinylated by standard methods (PerkinElmer). Anti-LRRK2 rabbit polyclonal antibody was purchased from Novus Biologicals. AlphaScreen Protein A IgG Kit (including acceptor and donor beads) was purchased from Perkin Elmer. […]
Serial dilutions of test compounds were prepared in Opti-MEM reduced serum media (Invitrogen) and 5.6 ul transferred from compound plate to cell assay plate to achieve a top final assay concentration of 10 uM. […] 10 ul of antibody/acceptor bead mix [(1/1000 biotinylated-pS935 LRRK2 antibody, 1/1000 total-LRRK2 antibody, 1/100 Acceptor beads in AlphaScreen detection buffer (25 mM Hepes (pH 7.4), 0.5% Triton X-100, 1 mg/ml Dextran 500 and 0.1% BSA)] was then added to each well and plates incubated for 2 hours at ambient temperature in the dark. 10 μl of donor beads solution (1/33.3 donor beads in AlphaScreen detection buffer) was then added to each well. Following incubation for a further 2 hours at ambient temperature in the dark, plates were read on an EnVision™ plate reader at emission 520-620 nm with excitation 680 nm. […]
Background: Bead proximity is the source of the signal in Alpha formats.

T1 sequence (Q5S007 whole entry): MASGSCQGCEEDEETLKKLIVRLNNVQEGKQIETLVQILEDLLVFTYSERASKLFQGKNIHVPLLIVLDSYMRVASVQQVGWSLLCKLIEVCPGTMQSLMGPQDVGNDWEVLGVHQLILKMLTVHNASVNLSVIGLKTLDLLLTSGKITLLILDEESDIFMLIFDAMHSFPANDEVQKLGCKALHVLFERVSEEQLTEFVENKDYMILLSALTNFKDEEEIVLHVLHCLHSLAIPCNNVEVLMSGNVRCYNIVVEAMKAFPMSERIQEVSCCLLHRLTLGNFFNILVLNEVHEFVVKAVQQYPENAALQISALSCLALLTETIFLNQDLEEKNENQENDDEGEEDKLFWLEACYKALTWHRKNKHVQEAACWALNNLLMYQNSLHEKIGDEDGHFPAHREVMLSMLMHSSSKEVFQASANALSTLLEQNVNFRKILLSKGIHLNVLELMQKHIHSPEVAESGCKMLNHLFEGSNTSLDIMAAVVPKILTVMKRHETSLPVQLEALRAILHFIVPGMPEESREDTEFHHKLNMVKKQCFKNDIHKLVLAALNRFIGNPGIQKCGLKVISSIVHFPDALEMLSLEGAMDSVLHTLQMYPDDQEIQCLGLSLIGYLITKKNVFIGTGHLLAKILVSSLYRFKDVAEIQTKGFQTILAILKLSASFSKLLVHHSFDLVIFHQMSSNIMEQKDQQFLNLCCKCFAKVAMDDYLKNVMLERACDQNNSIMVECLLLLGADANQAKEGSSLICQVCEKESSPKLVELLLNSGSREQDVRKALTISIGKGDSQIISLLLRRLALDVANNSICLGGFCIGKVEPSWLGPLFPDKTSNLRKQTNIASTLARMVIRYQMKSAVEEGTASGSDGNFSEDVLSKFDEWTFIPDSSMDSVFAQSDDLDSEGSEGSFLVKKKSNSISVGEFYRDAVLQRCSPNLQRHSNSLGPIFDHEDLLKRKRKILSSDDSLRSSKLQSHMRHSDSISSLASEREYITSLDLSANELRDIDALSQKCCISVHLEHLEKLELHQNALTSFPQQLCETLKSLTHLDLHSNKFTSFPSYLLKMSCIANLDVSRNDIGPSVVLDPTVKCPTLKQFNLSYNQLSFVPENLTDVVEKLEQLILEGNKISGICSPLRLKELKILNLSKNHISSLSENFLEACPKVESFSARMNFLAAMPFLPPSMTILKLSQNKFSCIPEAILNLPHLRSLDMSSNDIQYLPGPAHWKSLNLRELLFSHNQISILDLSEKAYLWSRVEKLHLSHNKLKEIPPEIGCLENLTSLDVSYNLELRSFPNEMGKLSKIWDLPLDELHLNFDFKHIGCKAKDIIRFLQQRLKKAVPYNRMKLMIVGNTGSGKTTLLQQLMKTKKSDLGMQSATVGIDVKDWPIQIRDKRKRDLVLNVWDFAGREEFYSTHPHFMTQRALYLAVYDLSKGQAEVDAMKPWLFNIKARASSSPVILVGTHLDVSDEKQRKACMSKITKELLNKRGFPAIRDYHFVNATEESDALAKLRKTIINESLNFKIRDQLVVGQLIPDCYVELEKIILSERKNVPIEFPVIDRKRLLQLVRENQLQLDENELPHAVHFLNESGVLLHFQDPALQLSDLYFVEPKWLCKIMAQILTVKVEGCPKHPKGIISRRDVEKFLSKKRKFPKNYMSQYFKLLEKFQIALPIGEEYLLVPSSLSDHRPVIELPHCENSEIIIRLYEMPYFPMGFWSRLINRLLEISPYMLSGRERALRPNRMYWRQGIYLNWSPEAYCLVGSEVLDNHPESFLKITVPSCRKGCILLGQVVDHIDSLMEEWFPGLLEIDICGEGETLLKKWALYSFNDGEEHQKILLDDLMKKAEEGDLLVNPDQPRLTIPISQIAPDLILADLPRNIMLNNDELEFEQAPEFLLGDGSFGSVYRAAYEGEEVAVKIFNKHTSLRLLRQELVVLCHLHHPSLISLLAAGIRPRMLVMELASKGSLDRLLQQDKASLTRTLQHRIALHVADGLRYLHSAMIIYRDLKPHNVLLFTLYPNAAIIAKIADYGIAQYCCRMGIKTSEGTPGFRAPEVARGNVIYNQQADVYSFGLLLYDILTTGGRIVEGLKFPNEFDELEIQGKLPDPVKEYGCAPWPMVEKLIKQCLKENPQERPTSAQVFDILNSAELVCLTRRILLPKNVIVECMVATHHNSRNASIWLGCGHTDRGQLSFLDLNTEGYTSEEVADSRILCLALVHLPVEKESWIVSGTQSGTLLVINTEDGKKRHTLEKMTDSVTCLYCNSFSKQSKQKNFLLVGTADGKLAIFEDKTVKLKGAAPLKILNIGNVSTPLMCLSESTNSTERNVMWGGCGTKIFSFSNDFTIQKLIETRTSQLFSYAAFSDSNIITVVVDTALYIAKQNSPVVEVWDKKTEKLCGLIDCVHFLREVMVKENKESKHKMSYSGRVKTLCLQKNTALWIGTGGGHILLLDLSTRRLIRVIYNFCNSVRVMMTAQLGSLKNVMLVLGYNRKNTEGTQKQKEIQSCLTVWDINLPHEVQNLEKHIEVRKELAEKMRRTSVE

For the compound `COc1nc(N2CC(O)C2)cc(-n2ncc3cc(C)c(C4CCN(CCS(C)(=O)=O)CC4)cc32)n1` [Example E42, 1-(2-methoxy-6-(5-methyl-6-(1-(2-(methylsulfonyl)ethyl)piperidin-4-yl)-1H-indazol-1-yl)pyrimidin-4-yl)azetidin-3-ol], the IC50 was 2 nM. In the case of `Cc1nc(N2CCO[C@@H](CO)C2)cc(-n2ncc3cc(C)c(C4CCN(CC(C)O)CC4F)cc32)n1` (single isomer, unassigned) [Example E29] it was 6.31 nM. As to `COc1nc(N2CCOCC2)cc(-n2ncc3cc(C)c(C4CCN(CCO)CC4F)cc32)n1` (single isomer, unassigned) [Example E1, 2-(3-fluoro-4-(1-(2-methoxy-6-morpholinopyrimidin-4-yl)-5-methyl-1H-indazol-6-yl)piperidin-1-yl)ethanol], the IC50 is 5.01 nM.
